Assay results taken from PMC9616412, “Nebulized fusion inhibitory peptide protects cynomolgus macaques from measles virus infection” (Nature Communications, 2022).

Columns and labels:
Vero cells = assay: Cell toxicity assay (MTT); format: cell-based; conditions: doses ranging from 0.5 nM to 4 µM, before and after nebulization, Vero-E6 cells
Procedure: Vero cells were incubated at 37 °C in the presence or absence of the indicated peptides at indicated concentrations up to 5 μM HRC4 peptide as added into the media, and the cells were incubated a 37 °C. According to the manufacturer’s guidelines, the viability was determined after 24 h using the Vybrant MTT (3- (4, 5-dimethylthiazolyl-2) −2, 5-diphenyltetrazolium bromide) cell proliferation assay kit. TritonX-100 (1%) was used as a positive control. Absorbance was read at 540 nm using a Tecan M1000PRO microplate reader.

[1] = Immunofluorescence detection of HRC4 in lungs after nebulization; format: in vivo, cynomolgus macaques; conditions: lungs sampled 15 min, 16 h and 24 h after nebulization; anti-HRC4 immunofluorescence, all three lung regions
Procedure: To evaluate immediate HRC4 biodistribution into lungs, one animal from the MeV-infection experiment (C1) was nebulized with 3 ml (4 mg/ml) immediately after euthanasia under mechanical ventilation (Dräger Primus anesthesia machine). For mid-term biodistribution, animals were nebulized 24 h (C2) or 16 h (C3) before euthanasia.
To assess the bioavailability of the HRC4 peptide on lungs, sections were stained and imaged by confocal microscopy as described previously. Briefly, after being blocked and permeabilized in 0.1% TritonX100, 5% BSA solution, slices were sequentially incubated with a rabbit anti-HRC4 (Genscript) overnight at 4 °C and with a secondary donkey anti-rabbit alexa-555 (Thermo Fisher) diluted 1/500 and DAPI (1 µg/ml) for 1 h at room temperature. Slides were imaged using a Zeiss LSM800 confocal microscope and processed by ImageJ1.52p.

MeV IC323 = assay: Lethal intranasal MeV infection of CD150xIFNα/βR KO mice, survival; conditions: p < 0.0001, Mantel-Cox test
Procedure: CD150xIFNα/βR KO mice[35],[36], generated by crossing hSLAM transgenic mice into an IFN Receptor α/β deficient background, were bred at the institute’s animal facility (PBES, ENS-Lyon, France) as heterozygotes for hSLAM transgenes. Three to 4 weeks old mice (males and females) were infected by intranasal route (i.n.) with 10 µl of MeV IC323 in both nares (10^4 PFU/mouse) under isoflurane anesthesia. CD150xIFNα/βR KO mice were given i.n. either 0.1 or 1 mg/kg of HRC4 peptide 24 h or 6 h before the infection. Control mice received the same number of administrations of the diluent. All animals were observed and weighed daily for four weeks and those showing clinical signs (neurological symptoms, ataxia, lethargy) were euthanized.

MeV IC323-eGFP = assay: Serial passaging of MeV in presence of peptide and sequencing for escape variants; conditions: 1 µM peptide, Vero-hSLAM cells, 8 passages, sequencing of viral RNA

In the case of `CC[C@H](C)[C@H](NC(=O)[C@H](C)NC(=O)[C@H](CC(N)=O)NC(=O)CNC(=O)[C@H](CC(C)C)NC(=O)[C@H](CC(N)=O)NC(=O)[C@@H](NC(=O)CNC(=O)[C@@H](NC(=O)[C@H](CC(=O)O)NC(=O)[C@H](CC(C)C)NC(=O)[C@H](CCCNC(=N)N)NC(=O)[C@H](CCC(=O)O)NC(=O)[C@H](CC(C)C)NC(=O)[C@H](CO)NC(=O)[C@@H](NC(=O)[C@@H]1CCCN1C(=O)[C@@H]1CCCN1)[C@@H](C)CC)C(C)C)[C@@H](C)O)C(=O)N[C@@H](C)C(=O)N[C@@H](CCCCN)C(=O)N[C@@H](CC(C)C)C(=O)N[C@@H](CCC(=O)O)C(=O)N[C@@H](CC(=O)O)C(=O)N[C@@H](C)C(=O)N[C@@H](CCCCN)C(=O)N[C@@H](CCC(=O)O)C(=O)N[C@@H](CC(C)C)C(=O)N[C@@H](CC(C)C)C(=O)N[C@@H](CCC(=O)O)C(=O)N[C@@H](CO)C(=O)N[C@@H](CO)C(=O)N[C@@H](CC(=O)O)C(=O)N[C@@H](CCC(N)=O)C(=O)N[C@H](C(=O)N[C@@H](CC(C)C)C(=O)N[C@@H](CCCNC(=N)N)C(=O)NCC(=O)N[C@@H](CO)C(=O)NCC(=O)N[C@@H](CO)C(=O)NCC(=O)N[C@@H](CSC1CC(=O)N(CCCC(=O)NCCOCCOCCOCCOCCC(=O)NCCN(CCNC(=O)CCOCCOCCOCCOCCNC(=O)CCCN2C(=O)CC(SC[C@H](NC(=O)CNC(=O)[C@H](CO)NC(=O)CNC(=O)[C@H](CO)NC(=O)CNC(=O)[C@H](CCCNC(=N)N)NC(=O)[C@H](CC(C)C)NC(=O)[C@@H](NC(=O)[C@H](CCC(N)=O)NC(=O)[C@H](CC(=O)O)NC(=O)[C@H](CO)NC(=O)[C@H](CO)NC(=O)[C@H](CCC(=O)O)NC(=O)[C@H](CC(C)C)NC(=O)[C@H](CC(C)C)NC(=O)[C@H](CCC(=O)O)NC(=O)[C@H](CCCCN)NC(=O)[C@H](C)NC(=O)[C@H](CC(=O)O)NC(=O)[C@H](CCC(=O)O)NC(=O)[C@H](CC(C)C)NC(=O)[C@H](CCCCN)NC(=O)[C@H](C)NC(=O)[C@@H](NC(=O)[C@H](C)NC(=O)[C@H](CC(N)=O)NC(=O)CNC(=O)[C@H](CC(C)C)NC(=O)[C@H](CC(N)=O)NC(=O)[C@@H](NC(=O)CNC(=O)[C@@H](NC(=O)[C@H](CC(=O)O)NC(=O)[C@H](CC(C)C)NC(=O)[C@H](CCCNC(=N)N)NC(=O)[C@H](CCC(=O)O)NC(=O)[C@H](CC(C)C)NC(=O)[C@H](CO)NC(=O)[C@@H](NC(=O)[C@@H]3CCCN3C(=O)[C@@H]3CCCN3)[C@@H](C)CC)C(C)C)[C@@H](C)O)[C@@H](C)CC)[C@@H](C)CC)C(=O)O)C2=O)CCO[C@H]2CC[C@@]3(C)C(=CC[C@H]4[C@@H]5CC[C@H]([C@H](C)CCCC(C)C)[C@@]5(C)CC[C@@H]43)C2)C1=O)C(=O)O)[C@@H](C)CC` (some centres unmarked) [HRC4], the Cytotoxicity (Vero cells) was “No measurable cytotoxicity”, the “Deposition of HRC4 in lungs” value [1] was “presence of HRC4 within the alveoli surface area” and the Survival rate (MeV IC323; HRC4 1 mg/kg intranasal six hours before infection with 10^4 PFU) was “significantly higher survival rate”. The Survival rate (MeV IC323; HRC4 1 mg/kg intranasal twenty-four hours before infection with 10^4 PFU) was “significantly higher survival rate” and the “Mutations in MeV F after serial passage in presence of peptide” value (MeV IC323-eGFP) was “no mutations were identified”.
